Read-outs that look alike come from different tables or passages of the source.
How the values were obtained:
[1] = tested on: NCs system (control pESC-URA and pUMGP5 plasmids)
[2] = tested on: RAD54 system (only the RAD54-GFP construct)
[3] = tested on: CYP2B6 + RAD54 system (CPR-CYP2B6 and RAD54-GFP constructs)
[4] = tested on: CYP2D6 + RAD54 system (CPR-CYP2D6 and RAD54-GFP constructs)
[5] = tested on: CYP3A4 + RAD54 system (CPR-CYP3A4 and RAD54-GFP constructs)
in vitro = settings: Saccharomyces cerevisiae
CYP2B6 [6] = biological target: T1, CYP2B6 (Homo sapiens, UniProt P20813); assay: in vitro; settings: pH 7.4, Km, 2B6+ clone microsomes, nonlinear regression, substrate 1–100 μM, 37°C
CYP2B6 [7] = biological target: T1, CYP2B6; settings: 2B6+ clone microsomes; nonlinear regression
CYP3A4 = assay: in vitro; settings: human, pH 7.4, Km, 3A4+ clone microsomes; nonlinear regression; substrate 1–100 μM, 37°C
recombinant human CYP3A4 = settings: 3A4+ clone microsomes; nonlinear regression
recombinant human CYP2D6 = recombinant human CYP2D6 (Homo sapiens, UniProt P10635); assay: CYP activity assay, deethylation of fluorogenic substrate by microsomes of 2D6+ clone; settings: 2D6+ clone microsomes, nonlinear regression
[8] = tested on: RAD54-GFP integrant + CYP1A2; settings: cited from earlier work
[9] = tested on: RAD54-GFP integrant + CYP3A4; settings: cited from earlier work
RAD54-GFP integrant = settings: concentration 1.02–33 μg/mL; ref Walsh et al. 2005 [30]; cited from earlier work
[10] = substrate: CCOc1ccc2cc(C#N)c(=O)oc2c1; assay: cells, lysate or membranes named; settings: other: 2D6+ clone microsomes, nonlinear regression, substrate 1–100 μM, 37°C
[11] = concentration 1.02–33 μg/mL, ref Walsh et al. 2005 [30]

T1 sequence (P20813 whole entry): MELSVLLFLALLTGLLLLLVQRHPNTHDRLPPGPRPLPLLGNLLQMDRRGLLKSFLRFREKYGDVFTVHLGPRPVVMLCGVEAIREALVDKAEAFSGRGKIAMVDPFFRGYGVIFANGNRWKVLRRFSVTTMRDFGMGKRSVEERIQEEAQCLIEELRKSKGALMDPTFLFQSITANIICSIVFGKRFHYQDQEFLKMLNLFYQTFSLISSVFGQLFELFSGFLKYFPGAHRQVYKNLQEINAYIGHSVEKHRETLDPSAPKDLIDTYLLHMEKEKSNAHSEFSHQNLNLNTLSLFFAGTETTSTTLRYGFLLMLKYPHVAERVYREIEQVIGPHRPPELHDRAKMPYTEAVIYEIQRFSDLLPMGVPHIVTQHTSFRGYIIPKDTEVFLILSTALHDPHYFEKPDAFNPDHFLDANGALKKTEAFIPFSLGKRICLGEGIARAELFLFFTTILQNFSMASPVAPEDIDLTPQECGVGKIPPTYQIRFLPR

Molecule: c1ccc2c(c1)cc1ccc3cccc4ccc2c1c34 [Benzo(a)pyrene, benzo(a)pyrene]
- GFP fold induction signal, NCs ([1]; 10 μM, 16 h at 30°C): – (Negative (≤1.3 GFP fold induction),–)
- GFP fold induction signal, NCs ([1]; 20 μM, 16 h at 30°C): – (Negative (≤1.3 GFP fold induction),–)
- GFP fold induction signal, NCs ([1]; 40 μM, 16 h at 30°C): – (Negative (≤1.3 GFP fold induction),–)
- GFP fold induction signal, RAD54 ([2]; 10 μM, 16 h at 30°C): – (Negative (≤1.3 GFP fold induction),–)
- GFP fold induction signal, RAD54 ([2]; 20 μM, 16 h at 30°C): – (Negative (≤1.3 GFP fold induction),–)
- GFP fold induction signal, RAD54 ([2]; 40 μM, 16 h at 30°C): – (Negative (≤1.3 GFP fold induction),–)
- GFP fold induction signal, CYP2B6 + RAD54 ([3]; 10 μM, 16 h at 30°C): – (Negative (≤1.3 GFP fold induction),–)
- GFP fold induction signal, CYP2B6 + RAD54 ([3]; 20 μM, 16 h at 30°C): – (Negative (≤1.3 GFP fold induction),–)
- GFP fold induction signal, CYP2B6 + RAD54 ([3]; 40 μM, 16 h at 30°C): – (Negative (≤1.3 GFP fold induction),–)
- GFP fold induction signal, CYP2D6 + RAD54 ([4]; 10 μM, 16 h at 30°C): – (Negative (≤1.3 GFP fold induction),–)
- GFP fold induction signal, CYP2D6 + RAD54 ([4]; 20 μM, 16 h at 30°C): – (Negative (≤1.3 GFP fold induction),–)
- GFP fold induction signal, CYP2D6 + RAD54 ([4]; 40 μM, 16 h at 30°C): – (Negative (≤1.3 GFP fold induction),–)
- Genotoxicity result, present study, CYP3A4 + RAD54 [5]: +
- GFP fold induction signal, CYP3A4 + RAD54 ([5]; 10 μM, 16 h at 30°C): + (positive (>1.3 GFP fold induction), + (1.3, 2])
- GFP fold induction signal, CYP3A4 + RAD54 ([5]; 20 μM, 16 h at 30°C): + (positive (>1.3 GFP fold induction), + (1.3, 2])
- GFP fold induction signal, CYP3A4 + RAD54 ([5]; 40 μM, 16 h at 30°C): ++ (++ (2, 3])
- fold induction (in vitro): ≤ 1.3

Molecule: CCOc1ccc2cc(C#N)c(=O)oc2c1 [7-ethoxycoumarin-3-carbonitrile]
- Km (CYP2B6 [6]): 3.7 µM
- Vmax (CYP2B6 [7]): 2.7 pmol/pmol CYP/min
- Km (CYP3A4): 3.5 µM
- Vmax (recombinant human CYP3A4): 3.2 pmol/pmol CYP/min
- Vmax (recombinant human CYP2D6): ~ 4.7 pmol/pmol CYP/min
- Km (recombinant human CYP2D6; substrate 1–100 μM, 37°C): ~2100 nM

Molecule: aflatoxin B1
- GFP fold induction signal, NCs ([1]; 0.1 µM): – (key: Negative (≤1.3 GFP fold induction),–; positive (>1.3 GFP fold induction), + (1.3, 2]; ++ (2, 3]; +++ (3, 4]; ++++ (4, ∞])
- GFP fold induction signal, NCs ([1]; 0.2 µM): – (key: Negative (≤1.3 GFP fold induction),–; positive (>1.3 GFP fold induction), + (1.3, 2]; ++ (2, 3]; +++ (3, 4]; ++++ (4, ∞])
- GFP fold induction signal, NCs ([1]; 0.4 µM): – (key: Negative (≤1.3 GFP fold induction),–; positive (>1.3 GFP fold induction), + (1.3, 2]; ++ (2, 3]; +++ (3, 4]; ++++ (4, ∞])
- GFP fold induction [2]: ≤ 1.3
- GFP fold induction signal, RAD54 ([2]; 0.1 µM): – (key: Negative (≤1.3 GFP fold induction),–; positive (>1.3 GFP fold induction), + (1.3, 2]; ++ (2, 3]; +++ (3, 4]; ++++ (4, ∞])
- GFP fold induction signal, RAD54 ([2]; 0.2 µM): – (key: Negative (≤1.3 GFP fold induction),–; positive (>1.3 GFP fold induction), + (1.3, 2]; ++ (2, 3]; +++ (3, 4]; ++++ (4, ∞])
- GFP fold induction signal, RAD54 ([2]; 0.4 µM): – (key: Negative (≤1.3 GFP fold induction),–; positive (>1.3 GFP fold induction), + (1.3, 2]; ++ (2, 3]; +++ (3, 4]; ++++ (4, ∞])
- Genotoxicity result, published report, RAD54-GFP integrant + CYP1A2 [8]: +
- Genotoxicity result, present study, CYP2B6 + RAD54 [3]: +
- GFP fold induction signal, CYP2B6 + RAD54 ([3]; 0.1 µM): – (key: Negative (≤1.3 GFP fold induction),–; positive (>1.3 GFP fold induction), + (1.3, 2]; ++ (2, 3]; +++ (3, 4]; ++++ (4, ∞])
- GFP fold induction signal, CYP2B6 + RAD54 ([3]; 0.2 µM): – (key: Negative (≤1.3 GFP fold induction),–; positive (>1.3 GFP fold induction), + (1.3, 2]; ++ (2, 3]; +++ (3, 4]; ++++ (4, ∞])
- GFP fold induction signal, CYP2B6 + RAD54 ([3]; 0.4 µM): + (key: Negative (≤1.3 GFP fold induction),–; positive (>1.3 GFP fold induction), + (1.3, 2]; ++ (2, 3]; +++ (3, 4]; ++++ (4, ∞])
- GFP fold induction signal, CYP2D6 + RAD54 ([4]; 0.1 µM): – (key: Negative (≤1.3 GFP fold induction),–; positive (>1.3 GFP fold induction), + (1.3, 2]; ++ (2, 3]; +++ (3, 4]; ++++ (4, ∞])
- GFP fold induction signal, CYP2D6 + RAD54 ([4]; 0.2 µM): – (key: Negative (≤1.3 GFP fold induction),–; positive (>1.3 GFP fold induction), + (1.3, 2]; ++ (2, 3]; +++ (3, 4]; ++++ (4, ∞])
- GFP fold induction signal, CYP2D6 + RAD54 ([4]; 0.4 µM): – (key: Negative (≤1.3 GFP fold induction),–; positive (>1.3 GFP fold induction), + (1.3, 2]; ++ (2, 3]; +++ (3, 4]; ++++ (4, ∞])
- Genotoxicity result, present study, CYP3A4 + RAD54 [5]: +
- GFP fold induction signal, CYP3A4 + RAD54 ([5]; 0.1 µM): + (key: Negative (≤1.3 GFP fold induction),–; positive (>1.3 GFP fold induction), + (1.3, 2]; ++ (2, 3]; +++ (3, 4]; ++++ (4, ∞])
- GFP fold induction signal, CYP3A4 + RAD54 ([5]; 0.2 µM): ++ (key: Negative (≤1.3 GFP fold induction),–; positive (>1.3 GFP fold induction), + (1.3, 2]; ++ (2, 3]; +++ (3, 4]; ++++ (4, ∞])
- GFP fold induction signal, CYP3A4 + RAD54 ([5]; 0.4 µM): ++ (key: Negative (≤1.3 GFP fold induction),–; positive (>1.3 GFP fold induction), + (1.3, 2]; ++ (2, 3]; +++ (3, 4]; ++++ (4, ∞])

Molecule: N-nitrosodimethylamine
- GFP fold induction signal, NCs [1]: – (key: Negative (≤1.3 GFP fold induction),–; positive (>1.3 GFP fold induction), + (1.3, 2]; ++ (2, 3]; +++ (3, 4]; ++++ (4, ∞])
- GFP fold induction [2]: ≤ 1.3
- GFP fold induction signal, RAD54 [2]: – (key: Negative (≤1.3 GFP fold induction),–; positive (>1.3 GFP fold induction), + (1.3, 2]; ++ (2, 3]; +++ (3, 4]; ++++ (4, ∞])
- Genotoxicity result, present study, CYP2B6 + RAD54 [3]: +
- GFP fold induction signal, CYP2D6 + RAD54 [4]: – (key: Negative (≤1.3 GFP fold induction),–; positive (>1.3 GFP fold induction), + (1.3, 2]; ++ (2, 3]; +++ (3, 4]; ++++ (4, ∞])
- GFP fold induction signal, CYP3A4 + RAD54 [5]: – (key: Negative (≤1.3 GFP fold induction),–; positive (>1.3 GFP fold induction), + (1.3, 2]; ++ (2, 3]; +++ (3, 4]; ++++ (4, ∞])
- Genotoxicity result, published report, RAD54-GFP integrant + CYP3A4 [9]: +

Molecule: COS(C)(=O)=O [Methyl methanesulfonate, methyl methanesulfonate]
- GFP fold induction signal, NCs ([1]; 25 μM, 16 h at 30°C): – (Negative (≤1.3 GFP fold induction),–)
- GFP fold induction signal, NCs ([1]; 50 μM, 16 h at 30°C): – (Negative (≤1.3 GFP fold induction),–)
- GFP fold induction signal, NCs ([1]; 100 μM, 16 h at 30°C): – (Negative (≤1.3 GFP fold induction),–)
- GFP fold induction signal, RAD54 ([2]; 25 μM, 16 h at 30°C): + (positive (>1.3 GFP fold induction), + (1.3, 2])
- GFP fold induction signal, RAD54 ([2]; 50 μM, 16 h at 30°C): +++ (+++ (3, 4])
- GFP fold induction signal, RAD54 ([2]; 100 μM, 16 h at 30°C): ++++ (++++ (4, ∞])
- Genotoxicity result, present study, RAD54 ([2]; concentration 2.75–11.01 μg/mL): +
- Genotoxicity result, published report, RAD54-GFP integrant + CYP1A2 [8, 11]: +
- GFP fold induction signal, CYP2B6 + RAD54 ([3]; 25 μM, 16 h at 30°C): + (positive (>1.3 GFP fold induction), + (1.3, 2])
- GFP fold induction signal, CYP2B6 + RAD54 ([3]; 50 μM, 16 h at 30°C): +++ (+++ (3, 4])
- GFP fold induction signal, CYP2B6 + RAD54 ([3]; 100 μM, 16 h at 30°C): ++++ (++++ (4, ∞])
- Genotoxicity result, present study, CYP2B6 + RAD54 ([3]; concentration 2.75–11.01 μg/mL): +
- Genotoxicity result, published report, RAD54-GFP integrant (RAD54-GFP integrant): +
- GFP fold induction signal, CYP2D6 + RAD54 ([4]; 25 μM, 16 h at 30°C): + (positive (>1.3 GFP fold induction), + (1.3, 2])
- GFP fold induction signal, CYP2D6 + RAD54 ([4]; 50 μM, 16 h at 30°C): +++ (+++ (3, 4])
- GFP fold induction signal, CYP2D6 + RAD54 ([4]; 100 μM, 16 h at 30°C): ++++ (++++ (4, ∞])
- Genotoxicity result, present study, CYP2D6 + RAD54 ([4]; concentration 2.75–11.01 μg/mL): +
- GFP fold induction signal, CYP3A4 + RAD54 ([5]; 25 μM, 16 h at 30°C): + (positive (>1.3 GFP fold induction), + (1.3, 2])
- GFP fold induction signal, CYP3A4 + RAD54 ([5]; 50 μM, 16 h at 30°C): +++ (+++ (3, 4])
- GFP fold induction signal, CYP3A4 + RAD54 ([5]; 100 μM, 16 h at 30°C): ++++ (++++ (4, ∞])
- Genotoxicity result, present study, CYP3A4 + RAD54 ([5]; concentration 2.75–11.01 μg/mL): +
- Genotoxicity result, published report, RAD54-GFP integrant + CYP3A4 [9, 11]: +

B1: recombinant human CYP2D6 (Homo sapiens) (protein)
chain: MGLEALVPLAVIVAIFLLLVDLMHRRQRWAARYPPGPLPLPGLGNLLHVDFQNTPYCFDQLRRRFGDVFSLQLAWTPVVVLNGLAAVREALVTHGEDTADRPPVPITQILGFGPRSQGVFLARYGPAWREQRRFSVSTLRNLGLGKKSLEQWVTEEAACLCAAFANHSGRPFRPNGLLDKAVSNVIASLTCGRRFEYDDPRFLRLLDLAQEGLKEESGFLREVLNAVPVLLHIPALAGKVLRFQKAFLTQLDELLTEHRMTWDPAQPPRDLTEAFLAEMEKAKGNPESSFNDENLRIVVADLFSAGMVTTSTTLAWGLLLMILHPDVQRRVQQEIDDVIGQVRRPEMGDQAHMPYTTAVIHEVQRFGDIVPLGVTHMTSRDIEVQGFRIPKGTTLITNLSSVLKDEAVWEKPFRFHPEHFLDAQGHFVKPEAFLPFSAGRRACLGEPLARMELFLFFTSLLQHFSFSVPTGQPRPSHHGVFAFLVSPSPYELCAVPR
- Km [10]: 2.1 µM
- kcat [10]: 4.7 pmol/pmol CYP/min
- kcat/Km [10]: 2.2 μL/pmol CYP/min

— paper PMC5179006, “Procarcinogens – Determination and Evaluation by Yeast-Based Biosensor Transformed with Plasmids Incorporating RAD54 Reporter Construct and Cytochrome P450 Genes” (PLoS ONE, 2016)
